Common to all, as to test: inhibition of tumour cell growth, NCI panel, 48 h
The test system of assay [1] is OVCAR-3 ovarian.
Assay [2] concerns HOP-62 NSCLC.
In assay [3] the test system is RXF 393 renal.
Assay [4] concerns NCI-H226 lung.
In assay [5] the test system is 786-0 renal.
The subject of assay [6] is SNB-75 CNS.
Assay [7] concerns CAKI-1 renal.
For assay [8], the system named is SF-268 CNS.
The subject of assay [9] is HCT-116 colon.
Assay [10] deals with M14 melanoma.
The subject of assay [11] is HL-60(TB) leukemia.
For assay [12], the system named is HCC-2998 colon.
Assay [13] has as its system NCI-H23 lung.
The test system of assay [14] is EKVX NSCLC.
Assay [15] deals with SF-539 CNS.
The test system of assay [16] is OVCAR-5 ovarian.
Assay [17] has as its system SNB-19 CNS.
For assay [18], the system named is T-47D breast.
The subject of assay [19] is MDA-MB-435.

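Five compound concentrations were applied to cells in 96-well plates for 48 hours; endpoints were derived by simple linear interpolation of the resulting dose-response curve. At the TGI there is no net growth.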 A value given as a limit tells only on which side of the number the result lay.

The source of these data is PubChem BioAssay (NCI).

As to `C=C(C)C1Cc2c(cc(OC)c3c(=O)c4ccccc4n(C)c23)O1` (configuration not stated), the TGI in assay [1], in assay [2], in assay [3], in [4], in assay [5] and in assay [6] was greater than 100 µM in each case. Moreover, the TGI in assay [7], in assay [8], in assay [9], in [10], in assay [11] and in assay [12] was greater than 100 µM each time. Further, the TGI in assay [13], in assay [14], in assay [15], in [16] and in assay [17] was greater than 100 µM each time.

With `CC(=O)n1cc(CC(C)O)c(=O)[nH]c1=O` (configuration not stated), the TGI in [1], in assay [2], in assay [4], in assay [5], in assay [6] and in assay [7] was greater than 100 µM in each case. Also, the TGI in assay [8], in assay [9], in [10], in assay [11], in assay [13] and in assay [14] was greater than 100 µM each time. The TGI in assay [15], in [16] and in [17] was greater than 100 µM each time.

As to `c1ccc2c(c1)ncn2CCn1ccnc1`, the TGI in [1], in assay [2], in assay [3], in assay [4], in [5] and in assay [6] was greater than 100 µM each time. Also, the TGI in assay [18], in [8], in assay [10], in [11], in assay [19] and in [12] was greater than 100 µM each time. Moreover, the TGI in assay [13], in assay [14], in [15], in assay [16] and in assay [17] was greater than 100 µM in each case.

Turning to `C[N+](C)(C)CC(=O)N/N=C/c1oc(-c2cccc([N+](=O)[O-])c2)c(-c2cccc([N+](=O)[O-])c2)c1[N+](=O)[O-]`, the TGI in assay [2], in assay [3], in assay [5], in [8], in assay [9] and in [10] was greater than 100 µM each time. Also, the TGI in assay [11], in assay [12], in assay [13], in [14], in assay [15] and in [16] was greater than 100 µM throughout. The compound further had a TGI in [17] greater than 100 µM.

For the compound `CN(C(=O)C12C3C4C1C1C2C3C41C(=O)N(C)C(C)(C)C)C(C)(C)C` (configuration not stated), the TGI in [1], in assay [2], in [5], in assay [6], in [7] and in assay [8] was greater than 50 µM throughout. In addition, the TGI in [9], in assay [10], in assay [11], in [12], in assay [14] and in assay [15] was greater than 50 µM throughout. In assay [17], this compound had a TGI greater than 50 µM.

Turning to `O=C(O)/C(=C/c1ccccc1[N+](=O)[O-])c1cccs1`, the TGI in assay [1], in [2], in [4], in [5], in assay [6] and in assay [7] was greater than 100 µM in each case. For the same compound, the TGI in assay [8], in [9], in assay [10], in assay [11], in assay [12] and in [13] was greater than 100 µM each time. Besides, the TGI in assay [14], in assay [15], in assay [16] and in [17] was greater than 100 µM each time.

For `O=S(=O)(c1ccccc1)n1cnc(CCc2ccccc2)n1`, the TGI in assay [1], in [2], in assay [3], in assay [4], in assay [5] and in [6] was greater than 100 µM throughout. In addition, the TGI in assay [7], in assay [8], in [9], in assay [10], in assay [11] and in assay [13] was greater than 100 µM throughout. Besides, the TGI in assay [15] and in assay [16] was greater than 100 µM each time.

Regarding `Cc1no[n+]([O-])c1/C=N/NS(=O)(=O)c1ccccc1`, the TGI in [1], in assay [2], in assay [3], in assay [5], in assay [7] and in assay [8] was greater than 100 µM throughout. Moreover, the TGI in assay [9], in assay [10], in assay [11], in assay [12], in assay [13] and in assay [14] was greater than 100 µM in each case. Further, the TGI in [15], in [16] and in assay [17] was greater than 100 µM throughout.

For `C=CC(Br)(CBr)CCC(Br)C(C)(C)Br` (configuration not stated), the TGI in [2] is 36.1 µM; in assay [3], 28.8 µM; in assay [4], 32.8 µM; in assay [5], 25.6 µM; in assay [6], 22.3 µM; in assay [7], 37.4 µM. Besides, the TGI in assay [8] is 32.3 µM; in assay [9], 28.3 µM; in [10], 28.3 µM; in assay [13], 30.3 µM; in assay [15], 29.9 µM; in assay [16], 33.2 µM.
